Measurements reported in US20070059311A1, “Regulation of the hedgehog signaling pathway and uses thereof” (priority 2005, published 2007).

Experiments:
Hep2G cells = assay: TUNNEL (TUNEL) apoptosis assay; assay type: cell-based; conditions: 2 μM
Protocol: (§1) TUNEL assay was performed using a kit from Roche Biochemicals according to published procedure (Athar et al., 2004). Briefly, cells were fixed with 4% paraformaldehyde at room temperature for 1 h and permeated with 0.1% Triton X-100, 0.1% sodium citrate (freshly prepared) on ice for 2 min. After washing with PBS, each sample was incubated with 50 μl of TUNEL reaction mixture at 37° C. for 30 min. TUNEL labeled solution (without enzyme) was used as a negative control. TUNEL positive cells were counted under a fluorescent microscope. The counting was repeated three times and the percentage from each counting was calculated.

Hep3B cells [1] = assay: TUNNEL (TUNEL) apoptosis assay; assay type: cell-based; conditions: 2 μM
Protocol: as §1

Hep3B cells [2] = assay: Trypan blue cell death assay; assay type: cell-based; conditions: KAAD-cyclopamine 2 μM
Protocol: (§2) HCC cell cell lines (Hep3B, HepG2, HCC36, PLC/PRF/5 (identified as PLC) and Huh 7) were provided by Chiaho Shih, Tien Ko and Kui Li at UTMB. All cells were cultured in Dulbeco-modified essential medium (DMEM) with 10% FBS and antibiotics. […] In addition, the specific inhibition of hedgehog signaling in HCC cells was achieved by addition of Shh neutralizing antibodies (1 μg/ml in 0.5% FBS DMEM, Car# SC-9024, Santa Cruz Biotechnology, Santa Cruz, Calif.). […] Transient transfection of Gli1 in HCC cells was performed using LipofectAmine according to the manufacturer's recommendation (Plasmid-LipofectAmine=1:2.5). Cells with ectopic expression of Gli1 were subjected to drug treatment and to TUNEL (terminal deoxynucleotidyl transferase-mediated dUTP nick end labeling) assay.
(§3) For cell viability analysis, two methods were used: trypan Blue analysis and MTT assay. Trypan Blue analysis was performed to manufacturer's instruction (Invitrogen, CA). The percentage of trypan blue positive cell (dead cells) were calculated under a microscope and triplicates of samples for each treatment were used in a 96-well format. Twenty microliters of MTT (10 mg/ml in PBS) was added to each well (containing 100 μl cultured medium, 0.5% FBS DMEM). […] Thirty minutes later, absorbance was measured at 570 nm using a microplate reader from Molecular Devices Co., Sunnyvale, Calif. […]

[3] = tested on: cells regardless of hedgehog signaling; assay: toxicity of KAAD-cyclopamine to cells regardless of hedgehog signaling; assay type: cell-based; conditions: 5 or 10 μM
Huh7 cells [4] = assay: BrdU incorporation; assay type: cell-based
GI cancer cells = GI cancer cells (Ma et al., 2006); cited from earlier work
[5] = tested on: Huh 7 cells that transiently expressed Gli1; assay: TUNEL assay in cells with ectopic expression of Gli1; assay type: cell-based; conditions: Huh 7 cells transiently expressing Gli1 under CMV promoter
Protocol: as §1

[6] = tested on: liver cancer cells with activated hedgehog signaling pathway; assay: induction of apoptosis in liver cancer cells; assay type: cell-based; conditions: 2 μM KAAD-cyclopamine
Protocol: as §1

Hep3B cells [7] = assay: real-time PCR of hedgehog target genes Gli1 and PTCH1 after drug treatment; assay type: cell-based; conditions: 2 μM
Protocol: as §2

Huh7 cells [8] = assay: MTT cell growth assay; assay type: cell-based; conditions: tomatidine, negative control
Protocol: as §2, §3

Huh7-2-3(+) cells = assay: real-time PCR of Gli1 in HCV replicating cells after interferon; assay type: cell-based; conditions: Huh7-2-3(+) cells treated with interferon (giving Huh7-2-3(−) cells)
Text: The activation of hedgehog signaling pathway in hepatocellular carcinoma infected with virus or bacteria was also examined. Huh7 cells are hepatocellular carcinoma cells that can support HCV replication (Scholle F. et al., 2004. Huh7-2-3(+) are Huh7 cells that allow active HCV replication and Huh7-2-3(−) cells are derived from Huh7-2-3(+) cells following interferon treatment for two weeks to prevent virus replication. SIIA are gastric cancer cells with hedgehog signaling activation and used as control.

Shh promoter = assay: sonic hedgehog promoter activity (luciferase reporter) in HCV expressing cells; assay type: cell-based; conditions: Huh7 cells with stable expression of HCV; HCV RNA replication inhibited by interferon treatment
Text: Furthermore, the present invention also examined whether HCV RNA replication was a major trigger for activated hedgehog signaling in Hepatocellular carcinoma. In order to do so, cell lines with or without HCV RNA replication for the sonic hedgehog (shh) promoter activity were compared. The promoter activity of SHH was higher in Huh7 cells than in HepG2 cells. […] However, the shh promoter activity was reduced when the HCV RNA replication was inhibited by interferon treatment as shown in 2-3c (FIG. 7B).

Row | Compound | apoptosis (TUNNEL assay) (Hep2G cells) | apoptosis (TUNNEL assay) (Hep3B cells [1]) | level of cell death (Trypan blue) (Hep3B cells [2]) | toxicity to cells [3] | BrdU incorporation (Huh7 cells [4]) | concentration that could cause non-specific toxicity (GI cancer cells) | TUNEL / sensitivity to treatment [5] | time within which apoptosis is induced [6] | levels of Gli1 and PTCH1 transcripts (Hep3B cells [7]) | cell growth (MTT assay) (Huh7 cells [8]) | expression of Gli1 (Huh7-2-3(+) cells) | shh promoter activity (Shh promoter)
1 | KAAD-cyclopamine | no detectable apoptosis | apoptosis | increased level of cell death | quite toxic | reduced | 10 µM | negative for TUNEL | ≤ 12 h |  |  |  | 
2 | C[C@H]1CC[C@]2(NC1)O[C@H]1C[C@H]3[C@@H]4CC[C@H]5C[C@@H](O)CC[C@]5(C)[C@H]4CC[C@]3(C)[C@H]1[C@@H]2C [tomatidine] | did not induce apoptosis | did not induce apoptosis |  |  |  |  |  |  | little discemible effect | did not affect cell growth |  | 
3 | interferon |  |  |  |  |  |  |  |  |  |  | reduced | reduced
